Results from BigSolDB 2.1.

O=C(O)c1cc(C(=O)O)cc(C(=O)O)c1
Settings | solubility (mole fraction)
in ethanol, 302.89 K | 0.0207
in ethanol, 309.85 K | 0.0228
in ethanol, 312.83 K | 0.0237
in ethanol, 319.06 K | 0.0257
in ethanol, 324.5 K | 0.0277
in ethylene glycol, 305.44 K | 0.00826
in ethylene glycol, 310.56 K | 0.00951
in ethylene glycol, 315.85 K | 0.0112
in ethylene glycol, 321.33 K | 0.0131
in ethylene glycol, 326.03 K | 0.0147
in ethylene glycol, 331.84 K | 0.0178
in isobutanol, 306 K | 0.0078
in isobutanol, 310.65 K | 0.0086
in isobutanol, 314.94 K | 0.00926
in isobutanol, 319.87 K | 0.0104
in isobutanol, 324.75 K | 0.0117
in isobutanol, 330.58 K | 0.0132
in isopropanol, 305.77 K | 0.00706
in isopropanol, 311.02 K | 0.00798
in isopropanol, 315.67 K | 0.00869
in isopropanol, 320.61 K | 0.00949
in isopropanol, 324.58 K | 0.0104
in isopropanol, 330.39 K | 0.0117
in methanol, 298.21 K | 0.012
in methanol, 304.67 K | 0.0138
in methanol, 308.78 K | 0.0151
in methanol, 313.97 K | 0.0169
in water, 301.05 K | 0.00015
in water, 305.47 K | 0.00019
in water, 309.8 K | 0.00025
in water, 315.22 K | 0.00033
in water, 320.56 K | 0.00044
in water, 325.11 K | 0.00055
in water, 329.42 K | 0.00069
